Ends that are not written are not given here.
What was measured:
[1] = system: E. coli (ATCC25922); experiment: Time-killing kinetics assay; assay type: cell-based, Escherichia coli
Procedure: (§1) The time-killing kinetics of peptide was determined as described previously by Yaraksa et al.[16] In short, E. coli (ATCC25922) and S. epidermidis (ATCC12228) cells grown overnight were diluted in the Nutrient broth to a concentration of 1 × 10^6 CFU/mL. The diluted bacterial suspension (50 µL) was incubated with the peptide solution (50 µL, final concentration = 1 × MIC or 2 × MIC) at 37 °C. 10 µL of the mixture was taken at regular time intervals (0, 15, 30, 60, 180, 360, 540 and 720 min for 1 × MIC and 0, 30, 60, 180, 360, 720, 1440, 2160 and 2880 min for 2 × MIC), diluted and cultured on nutrient agar plates for 24 h. Bacterial cells were then counted and a graph of the log CFU/mL against incubation time was plotted to evaluate the rate at which peptides kill bacterial cells.

[2] = system: human peripheral blood mononuclear cells (PBMC); assay type: cell-based; settings: 24 h
Procedure: (§2) Human peripheral blood mononuclear cells (PBMC), African green monkey kidney cells (Vero), human keratinocyte cells (HaCaT) and mouse preadipocytes (3T3-L1) were used to evaluate the cytotoxicity of peptides by the MTT assay. PBMCs were isolated using Ficoll medium (GE Healthcare, Uppsala, Sweden) as described by Jangpromma et al.[28]. The PBMCs were then cultured in RPMI 1640, while Vero, HaCaT and 3T3-L1 cells were cultured in DMEM. All culture mediums were supplemented with 10% heat-inactivated fetal bovine serum (FBS) and 1% antibiotic:antimycotic (Gibco, USA). The cells were cultured at 37 °C with 5% CO2/95% relative humidity. After that, PBMC (2 × 10^6 cells/well), Vero (1 × 10^4 cells/well), HaCaT (1 × 10^4 cells/well) and 3T3-L1 (1 × 10^4 cells/well) were individually seeded into 96-well plate and cultured at 37 °C overnight. Next, two-fold serially diluted peptides (3.13–200 μg/mL) were added to the cell culture. After incubation in 5% (v/v) CO2 incubator for 24 h, the medium culture was removed and MTT solution ([…] final concentration in fresh medium culture) was added to the cells and incubated for 30 min. Thereafter, the medium was removed and DMSO (100 µL) was added to each well to dissolve the formazan crystals. The optical density at 570 nm was determined using a microplate reader (ALLSHENG, Zhejiang, China). The cytotoxicity of IL15.3 against Vero, HaCaT and 3T3-L1 cells in the absence of FBS was also measured by the MTT assay to confirm the peptide is not sequestered by proteins in the serum causing artificially low cytotoxicity against eukaryotic cells.
(§3) Cell viability was determined using the equation: %cellviability=OD570ofsample/OD570ofuntreatedcontrol×100
(§4) GraphPad Prism8 (San Diego, CA, USA) was used to calculate IC50 values using a non-linear regression model.

[3] = system: human keratinocyte cells (HaCaT); assay type: cell-based; settings: 24 h
Procedure: as §2, §3, §4

[4] = system: S. epidermidis (ATCC12228); experiment: Time-killing kinetics assay; assay type: cell-based, Staphylococcus epidermidis; settings: 1 × MIC, 37 °C, colony count
Procedure: as §1

## IKHWKKVWKHAKKVL [IL15.3]
[1]; 1 × MIC, 37 °C, 1 × 10^6 CFU/mL, colony count
  time to inhibit the growth kinetic rate: ≤ 60 min
[1]; 1 × MIC, 37 °C, colony count
  time to completely stop growth: 180 min
[1]; 2 × MIC, 37 °C, colony count
  time to begin to inhibit growth kinetic rate: ≤ 30 min
  time to fully kill the cells: ≤ 180 min
[1]; 2 × MIC, after 48 h
  regrowth of cells: did not allow the cells to regrow
other
  increase in antimicrobial activity vs QL17: > 1000 fold
[2]
  IC50 PBMC: >200 µg/mL
[3]
  IC50 HaCaT: >200 µg/mL
[4]; 1 × 10^6 CFU/mL
  time to inhibit the growth kinetic rate: ≤ 180 min
[4]
  time to completely stop growth: 360 min

— article PMC10522709, “Rational design and characterization of cell-selective antimicrobial peptides based on a bioactive peptide from Crocodylus siamensis hemoglobin” (Scientific Reports, 2023)
